In brackets after ≈: the same amount, converted by molar mass. Like-named read-outs stand apart in the source and are kept apart here.
Assays:
S. pneumoniae ATCC 49619 = test system: S. pneumoniae ATCC 49619; set-up: method as in earlier work; conditions: QC range for S. pneumoniae ATCC 49619, ref CLSI; cited from earlier work
H. influenzae ATCC 49247 = test system: H. influenzae ATCC 49247; set-up: method as in earlier work; conditions: QC range for H. influenzae ATCC 49247, ref CLSI; cited from earlier work
[1] = test system: N. gonorrhoeae ATCC 49226; assay: IHMA QC MIC; type: cell-based; conditions: Neisseria gonorrhoeae, ATCC49226; QC strain N. gonorrhoeae ATCC 49226, test date 2021-11-18; read-out: MIC
From the text: Supplement jm2c01905_si_004.xlsx, sheet "QC" | column: MIC [µg/mL]

[2] = test system: N. gonorrhoeae ATCC 49226; set-up: method as in earlier work; conditions: QC range for N. gonorrhoeae ATCC 49226, ref CLSI; cited from earlier work
E. coli ATCC 25922 = test system: E. coli ATCC 25922; set-up: method as in earlier work; conditions: QC range for E. coli ATCC 25922, ref CLSI; cited from earlier work
[3] = test system: Neisseria gonorrhoeae (n = 12); assay: MIC broth microdilution at IHMA Europe; type: cell-based; conditions: for MIC: Neisseria gonorrhoeae, read-out: MIC
[4] = test system: Chinese hamster ovary K1 cells; conditions: 150 µM
[5] = test system: Chinese hamster ovary K1 cells; assay: in vitro micronucleus test; conditions: with S9, 150 µM

SMILES: COCC1=C(C(=O)O)N2C(=O)[C@@H](NC(=O)/C(=N\OC)c3csc(N)n3)[C@H]2SC1 [Cefpodoxime, cefpodoxime]
- MIC, CLSI Range (S. pneumoniae ATCC 49619): 0,03 - 0,12 µg/mL
- MIC, CLSI Range (H. influenzae ATCC 49247): 0,25 - 1 µg/mL
- MIC [1]: 0.06 µg/mL (≈ 0.14 µM)
- MIC, CLSI Range [2]: 0,03 - 0,12 µg/mL
- MIC, CLSI Range (E. coli ATCC 25922): 0,25 - 1 µg/mL
- Cumulative % at MIC ([3]; MIC 0.015 µg/mL): 8.3%
- No. of isolates at MIC ([3]; MIC 0.015 µg/mL): 1
- Cumulative % at MIC ([3]; MIC 0.03 µg/mL): 16.7%
- No. of isolates at MIC ([3]; MIC 0.03 µg/mL): 1
- Cumulative % at MIC ([3]; MIC 0.06 µg/mL): 41.7%
- No. of isolates at MIC ([3]; MIC 0.06 µg/mL): 3
- Cumulative % at MIC ([3]; MIC 0.5 µg/mL): 66.7%
- No. of isolates at MIC ([3]; MIC 0.5 µg/mL): 1
- Cumulative % at MIC ([3]; MIC 1 µg/mL): 83.3%
- No. of isolates at MIC ([3]; MIC 1 µg/mL): 2
- Cumulative % at MIC ([3]; MIC 2 µg/mL): 100.0%
- No. of isolates at MIC ([3]; MIC 2 µg/mL): 2
- Cumulative % at MIC ([3]; MIC […]): 58.3%
- No. of isolates at MIC ([3]; MIC […]): 2
- MIC ([3]; isolate IHMA 1123853): 1 µg/mL (≈ 2.34 µM)
- MIC ([3]; isolate IHMA 1130935): 0.03 µg/mL (≈ 0.0702 µM)
- MIC ([3]; isolate IHMA 1130989): 0.015 µg/mL (≈ 0.0351 µM)
- MIC ([3]; isolate IHMA 1130991): 1 µg/mL (≈ 2.34 µM)
- MIC ([3]; isolate IHMA 1137292): 0.5 µg/mL (≈ 1.17 µM)
- MIC ([3]; isolate IHMA 1145734): 0.25 µg/mL (≈ 0.585 µM)
- MIC ([3]; isolate IHMA 1145735): 0.06 µg/mL (≈ 0.14 µM)
- MIC ([3]; isolate IHMA 1165897): 0.06 µg/mL (≈ 0.14 µM)
- MIC ([3]; isolate IHMA 1194748): 0.06 µg/mL (≈ 0.14 µM)
- MIC ([3]; isolate IHMA 1194750): 0.25 µg/mL (≈ 0.585 µM)
- MIC ([3]; isolate IHMA 1546199): 2 µg/mL (≈ 4.68 µM)
- MIC ([3]; isolate IHMA 1546215): 2 µg/mL (≈ 4.68 µM)

SMILES: c1ccc2c(c1)cc1ccc3cccc4ccc2c1c34 [Benzo[a]pyrene]
- % Cytostasis [4]: 8.3%
- No. binucleate cells [5]: 1702
